# Source: ChEMBL document CHEMBL1156829 (Proc Natl Acad Sci U S A, 2008)
# Assays:
# [1] = system: Plasmodium falciparum; assay: NOVARTIS: Inhibition of Plasmodium falciparum 3D7 (drug-susceptible) proliferation in erythrocyte-based infection assay; assay type: functional, organism-based; settings: Plasmodium falciparum, 3D7
# [2] = system: Plasmodium falciparum; assay: NOVARTIS: Inhibition of Plasmodium falciparum W2 (drug-resistant) proliferation in erythrocyte-based infection assay; assay type: functional, organism-based; settings: Plasmodium falciparum, W2; read-out: EC50
# [3] = NOVARTIS: Cytotoxicity against human hepatocellular carcinoma cell line (Huh7); assay type: toxicity, cell-based, Huh-7; settings: Huh7 cells (hepatocellular carcinoma cell line)
Compound,EC50 [1] [nM],EC50 [2] [nM],CC50 [3] [nM]
CCOC(=O)C1=C(C)NC2=C(C(=O)CCC2)C1c1ccc([N+](=O)[O-])cc1 (stereo not given),902,570,> 100000
COC(=O)c1c(OCc2ccc(F)cc2)cc(=O)n2c1CCN(Cc1ccccc1)CC2,3940,538,> 100000
Cc1cccc(NC(c2ccncc2)c2ccc3cccnc3c2O)n1 (stereo not given),669,375,69900
Cc1cc(C)cc(Nc2cc(C)nc3nc(C)nn23)c1,594,536,> 100000
Cc1cccc(C2Sc3ccccc3N=C3c4ccccc4C(=O)C32)c1 (stereo not given),300,140,24400
O=C(CSc1ccc2nnc(-c3cccs3)n2n1)Nc1ccc2c(c1)OCCO2,447,573,> 100000
Cc1cc2c(cc1C)N(C(=O)c1ccccc1)C(C)(C)c1ssc(=S)c1-2,600,572,> 100000
COc1cc(OC)cc(C(=O)Oc2ccccc2-c2nc3cc(C)ccn3c2NC(C)(C)CC(C)(C)C)c1,946,54,> 10000
COc1ccc(NC(=O)C=Cc2ccccc2Cl)cc1,972,577,> 100000
C=CCOc1c(Br)cc(C=c2sc3n(c2=O)C(c2ccc(OC)c(OC)c2)C(C(=O)OCC)=C(C)N=3)cc1OC (stereo not given),> 12500,576,> 100000
O=C(Nc1ccc(-n2cnnn2)cc1)C1CCN(Cc2ccc(OC(F)F)cc2)CC1,1590,266,46300
COc1ccc(OC)c(C2C3=C(CC(C)(C)CC3=O)N(c3ccc(Cl)c(Cl)c3)C3=C2C(=O)CC(C)(C)C3)c1,430,546,> 100000
Cc1nc2ccccc2n1S(C)(=O)=O,59.6,54.3,> 10000
CC(=O)N(C1=C(N(C)C)C(=O)c2ccccc2C1=O)c1cccc(O)c1,46.7,58.2,> 10000
CCOc1ccc(C2C(C(=O)OC)=CNC=C2C(=O)OC)cc1Cl,304,581,> 100000
CCOC(=O)C1CCN(C(=O)C(=O)Nc2ccc3nc4n(c(=O)c3c2)CCCCC4)CC1,998,580,> 100000
C=CC1CN2CCC1CC2[C@@H](OC(=O)c1ccc(OC)cc1)c1ccnc2ccccc12 (stereo not given in full),309,509,87100
CCNc1nc(OC)nc(Oc2ccc(=O)n(-c3ccccc3)n2)n1,548,584,> 100000

Compound,EC50 [1] [nM],EC50 [2] [nM],CC50 [3] [nM]
COc1ccc(-c2c[n+](CC(=O)c3ccccc3)c3n2CCC3)cc1,1200,571,> 100000
Cc1nc(N2CCC(C)CC2)c2c(C)c(C(=O)Nc3ccc(C(F)(F)F)cc3)sc2n1,> 12500,562,> 100000
CCCN(CCC)S(=O)(=O)c1cc(Br)cc2c1N(C(C)=O)CC2,1990,561,> 100000
CCOc1ccc(CCNC(=O)c2cccs2)cc1OCC,890,560,> 100000
CCc1ccc(C2C(C(=O)Nc3ccccc3)=C(C)Nc3c(C(=O)Nc4ccc(C)cc4)cnn32)cc1 (stereo not given),1500,554,> 100000
COc1ccc(C2=C(c3ccc(OC)cc3)C3(c4ccccc4)C(=O)C2(c2ccccc2)C2C(=O)N(c4ccccc4[N+](=O)[O-])C(=O)C23)cc1 (stereo not given),1190,580,> 100000
Cc1cc(C)cc(NC2=C(N)C(=O)c3ccccc3C2=O)c1,969,551,> 100000
CC[C@H]1CN2CC[C@@H]1C[C@@H]2[C@@H](O)c1ccnc2ccc(OC)cc12,31.8,57.9,> 10000
CCOC(=O)c1nnn(-c2nonc2N)c1-c1ccc(OC)cc1,653,564,> 100000
CCOC(=O)C1CCN(C(=O)c2cc(C(C)(C)C)nn2Cc2ccc(Cl)cc2Cl)CC1,340,576,> 100000
CCOC(=O)c1cnc2c(C)cc(C)cc2c1Nc1ccc(OC)c(OC)c1,1780,583,> 100000
CC(C)(C)c1nn(-c2ccc(Cl)cc2)c2[nH]c(=O)c(CNCc3ccccc3)cc12,731,539,> 100000
CCOC(=O)C1CCN(C(c2cc3cc(OC)c(OC)cc3[nH]c2=O)c2nnnn2C(C)(C)C)CC1 (stereo not given),889,567,> 100000
CCCCSCC(O)CN1CCCCC1 (stereo not given),5280,534,> 100000
CCCCc1c(CCC)c(=N)c2ccccc2n1C,311,422,71900
CCN(CC)CCNc1ncnc2c1[nH]c1ccc(F)cc12,277,169,31500
C=CC[n+]1c(C=C2C=CN(C)C=C2)sc2ccccc21,172,140,24600
